Laboratory results as given in the supplement of paper PMC10307832.

Tests used:
Test in all cases: relative viability (nuclei count vs DMSO), 5 days (fraction); higher = more cells survive
[1] = compound: CC1=CC=C(C=C1)C(=O)CN2C3=C(CCCC3)SC2=N [Pifithrin_alpha] + CS(=O)(=O)N1CCN(Cc2cc3nc(-c4cccc5[nH]ncc45)nc(N4CCOCC4)c3s2)CC1 [Pictilisib] (partner 1 µM)
In short: (§1)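 Lung cancer cell lines were pin-tool dosed in 1536-well plates on the day after seeding, with either a lone drug or a fixed anchor-drug dose plus five library-drug doses (not always all listed) in √10 steps. Nuclei were counted on 4× images after 5 days. Relative viability is the ratio of treated-well to vehicle-well nuclei counts, with each value a median of duplicate plates.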

Bemcentinib + Linsitinib = compound: Nc1nc(Nc2ccc3c(c2)CC[C@@H](N2CCCC2)CC3)nn1-c1cc2c(nn1)-c1ccccc1CCC2 [Bemcentinib] + C[C@]1(O)C[C@@H](c2nc(-c3ccc4ccc(-c5ccccc5)nc4c3)c3c(N)nccn32)C1 [Linsitinib] (partner 1 µM)
In short: as §1

[2] = compound: CC1=CC=C(C=C1)C(=O)CN2C3=C(CCCC3)SC2=N [Pifithrin_alpha] + CC(=O)c1c(C)c2cnc(Nc3ccc(N4CCNCC4)cn3)nc2n(C2CCCC2)c1=O [Palbociclib] (partner 0.5 µM)
In short: as §1

Bemcentinib + Navitoclax = compound: Nc1nc(Nc2ccc3c(c2)CC[C@@H](N2CCCC2)CC3)nn1-c1cc2c(nn1)-c1ccccc1CCC2 [Bemcentinib] + CC1(C)CCC(c2ccc(Cl)cc2)=C(CN2CCN(c3ccc(C(=O)NS(=O)(=O)c4ccc(N[C@H](CCN5CCOCC5)CSc5ccccc5)c(S(=O)(=O)C(F)(F)F)c4)cc3)CC2)C1 [Navitoclax] (partner 0.5 µM)
In short: as §1

Cell Line	relative viability ([1]; first compound 1 µM)	relative viability ([1]; first compound 3.162 µM)	relative viability ([1]; first compound 10 µM)	relative viability ([1]; first compound 31.62 µM)	relative viability ([1]; first compound 100 µM)	relative viability (Bemcentinib + Linsitinib; first compound 0.04 µM)	relative viability (Bemcentinib + Linsitinib; first compound 0.1265 µM)	relative viability (Bemcentinib + Linsitinib; first compound 0.4 µM)	relative viability (Bemcentinib + Linsitinib; first compound 1.265 µM)	relative viability (Bemcentinib + Linsitinib; first compound 4 µM)	relative viability ([2]; first compound 1 µM)	relative viability ([2]; first compound 3.162 µM)	relative viability ([2]; first compound 10 µM)	relative viability ([2]; first compound 31.62 µM)	relative viability ([2]; first compound 100 µM)	relative viability (Bemcentinib + Navitoclax; first compound 0.04 µM)	relative viability (Bemcentinib + Navitoclax; first compound 0.1265 µM)	relative viability (Bemcentinib + Navitoclax; first compound 0.4 µM)	relative viability (Bemcentinib + Navitoclax; first compound 1.265 µM)	relative viability (Bemcentinib + Navitoclax; first compound 4 µM)
NCI-H322M	0.54	0.45	0.503	0.44	0.428	0.994	0.978	0.9	1.01	1.04	0.381	0.56	0.501	0.474	0.525	1.11	1.26	1.23	1.35	1.37
201T	0.603	0.525	0.52	0.53	0.551	1.03	1.04	1.02	1.07	1.07	0.349	0.319	0.344	0.286	0.376	1.17	1.24	1.21	1.24	1.3
SK-LU-1	0.523	0.526	0.615	0.451	0.45	1.15	1.42	1.28	1.02	1.13	0.349	0.412	0.405	0.308	0.413	0.867	0.986	0.894	0.807	0.615
NCI-H1755	0.296	0.451	0.395	0.307	0.39	1.03	1.02	1.04	1.04	1.11	0.433	0.437	0.441	0.424	0.443	1.05	1.04	1.03	1.11	1.08
NCI-H1666	0.351	0.296	0.277	0.238	0.293	0.932	0.872	0.958	0.972	0.707	0.642	0.68	0.591	0.612	0.646	0.864	0.942	1.01	0.866	1.03
PC-3 [JPC-3]	0.547	0.757	0.629	0.569	0.597	0.967	0.999	0.902	0.957	1.07		0.519		0.455	0.458	0.803	0.827	0.865	0.848	0.826
NCI-H1975	0.232	0.18	0.187	0.193	0.18	0.981	1.03	1.03	1.06	1.02	0.573	0.435	0.32	0.302	0.339	1.03	1.23	1.12	1.05	1.2
LC-2-ad	0.414	0.382	0.489	0.304	0.18	0.831	0.851	0.835	0.888	0.894	0.514	0.503	0.51	0.375	0.432	0.415	0.547	0.609	0.536	0.509
NCI-H1993		0.747	0.8	0.673	0.846	0.699	0.735	0.776	0.773	0.804	0.585	0.542	0.506	0.54	0.46	0.897	0.911	1.02	0.994	1.08
CAL-12T	0.415	0.385	0.348	0.347	0.331	0.865	0.821	0.927	0.823	0.863	0.364	0.308	0.436		0.238	1.12	1.28	1.25	1.19	1.32
H3255	0.432	0.612	0.497	0.35	0.491	0.89	1.22	1.04	1.02	0.888	0.292	0.304	0.298	0.296	0.304	0.397	0.581	0.67	0.325	0.506
NCI-H2228	0.516	0.352	0.434	0.294	0.303		0.627	0.733	0.585	1.11	0.833	0.75	0.659	0.453	0.853		1.06	1.15	0.909	1.08
NCI-H727	0.347	0.466	0.369	0.316	0.227	0.331	0.286	0.288	0.3	0.293	0.615	0.678	0.657	0.636	0.667	0.348	0.389	0.435	0.382	0.522
NCI-H1355	0.195	0.363	0.311	0.257	0.337	0.858	0.98	0.848	0.903	0.99	0.376	0.283	0.301	0.249	0.257	0.947	0.943	1.08	0.941	0.976
LXF-289	0.818	0.694	0.726	0.498	0.687	0.955	1.06	0.972	0.991	0.995	0.591	0.625	0.591	0.529	0.6	0.955	0.914	0.979	1	0.961
NCI-H3122	0.628	0.596	0.577	0.563	0.732	0.949	1.06	1.02	1.08	1	0.175	0.211	0.193	0.146	0.195	1.01	1.06	1.02	1	1.03

Cell Line	relative viability ([1]; first compound 1 µM)	relative viability ([1]; first compound 3.162 µM)	relative viability ([1]; first compound 10 µM)	relative viability ([1]; first compound 31.62 µM)	relative viability ([1]; first compound 100 µM)	relative viability (Bemcentinib + Linsitinib; first compound 0.04 µM)	relative viability (Bemcentinib + Linsitinib; first compound 0.1265 µM)	relative viability (Bemcentinib + Linsitinib; first compound 0.4 µM)	relative viability (Bemcentinib + Linsitinib; first compound 1.265 µM)	relative viability (Bemcentinib + Linsitinib; first compound 4 µM)	relative viability ([2]; first compound 1 µM)	relative viability ([2]; first compound 3.162 µM)	relative viability ([2]; first compound 10 µM)	relative viability ([2]; first compound 31.62 µM)	relative viability ([2]; first compound 100 µM)	relative viability (Bemcentinib + Navitoclax; first compound 0.04 µM)	relative viability (Bemcentinib + Navitoclax; first compound 0.1265 µM)	relative viability (Bemcentinib + Navitoclax; first compound 0.4 µM)	relative viability (Bemcentinib + Navitoclax; first compound 1.265 µM)	relative viability (Bemcentinib + Navitoclax; first compound 4 µM)
NCI-H2023	0.171	0.193	0.151	0.142	0.168	0.689	0.721	0.821	0.877	0.678	0.388	0.327	0.365	0.227	0.184	0.963	1.12	1.11	1.12	0.996
NCI-H838	0.343	0.357	0.399	0.293	0.314	0.995	1.08	1.02	1.08	1.05	0.192	0.189	0.203	0.188	0.183	1.15	1.28	1.36	1.13	1.36
COR-L 105	0.324	0.377	0.415	0.33	0.458	0.975	0.943	1.15	1.02	0.871	0.382	0.42	0.412	0.357	0.406	0.602	0.733	0.794	0.86	0.729
RERF-LC-KJ	0.535	0.397	0.503	0.451	0.432	0.918	0.921	0.886	0.849	1	0.91	0.974	0.886	0.66	0.635	0.815	0.805	0.983	1.01	0.947
NCI-H2405		0.39	0.427	0.403	0.292	0.874	0.966	0.965	0.918	0.896		0.508	0.511	0.433	0.503	0.788	0.868	0.859	0.877	0.84
UMC-11	0.775	0.802	0.888	0.604	1.03	1.01	1.08	1.06	0.978	0.977	0.342	0.289	0.301	0.283	0.296	0.274	0.327	0.34	0.317	0.307
PC-14	0.764	0.674	0.645	0.495	0.563	0.982	1.02	1.06	1.07	1.08	0.651	0.513	0.515	0.191	0.134	1.07	1.12	1.16	1.05	0.997
HCC-78	0.134	0.218	0.174		0.196	0.572	0.56	0.49	0.634	0.806	0.449	0.412	0.454	0.409	0.488	0.657	0.792	0.859	0.943	0.836
A-427	0.722	0.629	0.666	0.522	0.657		1.14	1.07	1.14	1.14	0.5	0.529	0.497	0.447	0.454		0.946	0.826	0.909	1.07
HCC-827	1.05	0.982	0.907	0.791	1.02	0.952	0.992	0.936	0.947	0.988	0.49	0.444	0.479	0.43	0.471	1.03	1.04	1.07	0.957	1.02
EPLC-272H		0.319	0.35	0.255	0.248		1.08	1.28	1.16	1.19		0.322	0.334	0.315	0.351		1.04	1.19	1.33	1.43
SK-MES-1	0.392	0.32	0.33	0.293	0.237	1.18	1.16	1.15	1.32	1.12	0.294	0.286	0.267	0.266	0.267	1.25	1.22	1.36	1.49	1.47
NCI-H520	0.27	0.311	0.301	0.269	0.285	0.85	0.982	1.08	1.01	1.18	0.203	0.254	0.26	0.205	0.222	1.19	1.19	1.42	1.11	1.07
BEN	0.445	0.576	0.64	0.618	0.543	0.915	1.09	0.986	0.886	0.907	0.487	0.488	0.456	0.444	0.472	0.0583	0.0756	0.0599	0.055	0.0552
LK-2	0.631	0.599	0.589		0.62	0.836	0.57	0.677	0.551	1.05	0.686	0.644	0.687		0.782	0.755	0.903	0.994	0.904	0.904
NCI-H2087	0.74	0.872	0.894	0.453	0.757	0.957	0.975	1.09	0.891	1.09	0.219	0.198	0.245	0.195	0.207	1.16	1.03	1.15	0.992	1.02
